SMILES | melting point [°C]
Cc1cc2c(cc1C(=O)c1ccc(C(O)=NOCc3ccccc3)cc1)C(C)(C)CCC2(C)C | 169 to 172
CCCCCn1c(C2=CC(=O)c3ccccc3C2=O)ccc1C1=CC(=O)c2ccccc2C1=O | 128
NC(=O)c1c(C(=O)O)cnn1-c1ccc(Cl)c(Cl)c1 | 249 to 250
COC(=O)CC=CCC(=O)NCCc1ccccc1 | 69 to 70
O=C(CN1CCC(NC(=O)c2ccccc2)CC1)c1ccccc1 | 168
COc1cc(S(=O)(=O)c2ccncc2)ccc1[N+](=O)[O-] | 123 to 124
CC(C)(C)NC(=O)Nc1ccc([N+](=O)[O-])cc1O | 99 to 101
CC(C)(C)OC(=O)N[C@H](CNc1ccccc1N)C(=O)O | 158 to 160
C=CCOn1cc(C(=O)NCc2ccc(Cl)cc2)c(=O)c2ccccc21 | 113 to 114
CCCCCCCCC(=O)Nc1ccc([N+](=O)[O-])cc1 | 76 to 76.5
C#Cc1cnn2c(C(F)(F)F)cc(-c3ccc(Cl)cc3)nc12 | 102 to 103
Nc1cnc(-c2ccc(OCc3ccccc3)c(C34CC5CC(CC(C5)C3)C4)c2)nc1 | 216 to 219
Oc1ccc2c(c1)CN(C1CC1)C2 | 170
CCOC(=O)CC(=O)c1cc(F)c(N2CCC(N)C2)nc1Nc1ccc(F)cc1F (stereo unspecified) | 140 to 142
C=CCSc1nc(O)nn1CC | 74 to 76
C#CCOCCn1cnc2cnc3ccccc3c21 | 124 to 126
O=C(O)c1ccc2c(c1)CCc1ccc(Br)cc1C2=O | 218 to 219
O=C(O)Cc1ccc2c3ccccc3n(Cc3ccccc3)c2c1 | 149 to 150
COC(=O)c1ccc(C=C2CCn3c2nc2cc(N)ccc2c3=O)cc1 | 292 to 295
CN(Cc1ccco1)C1=N/C(=C\c2c[nH]c3ncc(Cl)cc23)C(=O)N1 | 315
COc1ccc(C(=O)C(Cl)=NO)cc1 | 118 to 125
O=c1ccn([C@@H]2C(F)=C(CCO)[C@@H](O)[C@H]2O)c(=O)[nH]1 | 166 to 167
Cc1cc(-c2ccc(C(F)(F)F)cc2)cn2c(-c3nc(-c4cnc(N)nc4)no3)cnc12 | 302
O=C(Cc1ccc(Cl)c(Cl)c1)NC1N=C(C2CC2)c2ccccc2N(CC(F)(F)F)C1=O (single isomer, unassigned; (+)) | 193 to 194

SMILES | melting point [°C]
O=c1ccn2ncc(-c3cccs3)c2[nH]1 | 231 to 232
O=C1NS(=O)(=O)c2cc(O)cc(O)c21 | 286
Cc1ccc(NC=CS(=O)(=O)F)cc1 | 61 to 65
C=Cc1cn([C@@H]2O[C@H](C)[C@@H](OC(C)=O)[C@H]2OC(C)=O)c(=O)nc1N | 198 to 199
Cc1ccc(Sc2c(O)c3ccc(Cl)cc3[nH]c2=O)cc1C | 267 to 268
c1ccc(OCn2c(Nc3cnon3)nc3ccccc32)cc1 | 171 to 173
CC1=NC(=NO)SC1(C)C | 151 to 153
O=C(Nc1ccc(-n2nc(C(F)(F)F)cc2C2CC2)c(F)c1)c1cccc(F)c1F | 132 to 135
CC(C)n1nc(-c2sc(NC(=O)C3CC3)nc2-c2ccccc2)ccc1=O | 226 to 227
Cc1nc2c(N)nc3cc(OCCC4CCN(C(=O)C5CCCC5)CC4)ccc3c2n1CC(C)C | 236 to 238
Cc1cccc(Cl)c1NC(=O)Nc1cc(NC(C)C)ncn1 | 233
CN(C)c1ccc(C2CCCN2S(=O)(=O)c2ccc(Cl)cc2)cc1Cl (racemic) | 103
CCOC(=O)c1ccnnc1NC(=O)Cc1c(F)cc(F)cc1F | 135
COC(=O)CCCc1cc2cc(Cl)ccc2n1S(=O)(=O)c1ccc(S(=O)(=O)N2CCOCC2)cc1 | 54
CCOC(=O)CNC(=O)/C=C/S(=O)(=O)c1ccccc1 | 156 to 157
CCOc1cc([C@@H](CCN(O)C(N)=O)N2Cc3cccc(NC(=O)C(C)C)c3C2=O)ccc1OC | 137 to 139
CSC1(SC)C(=O)CC2C3CCC4=CC(=O)C=CC4(C)C3(F)C(OC(C)=O)CC21C (stereo unspecified) | 225 to 227
COc1ccc(C#CCCCCCCC#CCO)cc1OC | 39 to 41
CCn1c(=O)c2[nH]c(/C=C/c3cccc(Cl)c3)nc2n(CC)c1=O | > 280
CC(C)(C)OC(=O)NCCNC(=O)c1nocc1-c1ccccc1 | 170 to 171
Nn1c(-c2cncc(Cl)c2)cc2ccccc21 | 154 to 156
C#CCON=Cc1c(C(=O)OC)[nH]c2c(C)ccc(C)c12 | 113 to 114
COC(=O)CCc1nc(-c2cc3ccccc3o2)no1 | 112 to 113
O=C(OCCCl)C(O)c1ccccc1 (stereo unspecified) | 43 to 45

Next, values leading:

melting point [°C] | SMILES
195 to 210 | COC(=O)c1ccc(-c2nc3cc(C(=O)OC)ccc3o2)cc1
118 | CCOC(=O)C(=O)Cc1ccc(C#N)cc1[N+](=O)[O-]
141 to 143 | CC(C)C[C@H](NC(=O)C=Cc1ccccc1)C(=O)N[C@@H](Cc1ccccc1)C(=O)CSCc1ccco1
129 to 131 | O=C(O)C1c2ccccc2CCc2cc(Br)ccc21 (stereo unspecified)
121 to 122 | COc1ccccc1Oc1cccc(CC(=O)O)c1OC
192 | N#Cc1cc(-c2cc(C(F)F)c3cnn(C4CCCCO4)c3n2)ccc1N (stereo unspecified)
166 | COc1ccc2c(c1)CCn1ncnc1C2=C1CCN(C)CC1
178 to 180 | Cc1c(CC(=O)O)c2cc(OCc3csc(-c4ccccc4)n3)ccc2n1Cc1csc(-c2ccc(Cl)cc2)n1
124 | Cc1cc(C(N)=O)ccc1N
294 to 296 | CS(=O)(=O)c1ccc(-c2cc(C#N)c(=O)[nH]c2-c2ccc(F)cc2)cc1
132 to 134 | Cn1ccnc1S(=O)c1ccccc1Cl (stereo unspecified)
231 to 233 | Cc1c(CC(=O)O)c2cc(OCc3ccccn3)ccc2n1Cc1ccc(Cl)cc1
127 to 128 | CCCOc1ccccc1-c1ccc(C#N)c(=S)[nH]1
126 to 127 | CCOC(=O)CN[C@@H](c1ccccc1)[C@H](O)c1ccccc1
153 to 154 | CCN1CCNC(=O)C1c1ccc(N)cc1 (stereo unspecified)
60 to 62 | O=C(CCC1CCCCCCCCCCC1)C1=C(O)CSC1=O
195 to 196 | Oc1ccccc1-c1cc(-c2ccc3c(c2)OCO3)cc(-c2ccc3ccccc3c2)n1
204 to 206 | CSc1cc(C)nc(SC)c1NC(=O)CC=CC1=C(c2ccccc2)c2ccccc2OC1
121 to 128 | COC(=O)COc1ccc(OC/C=C(/c2ccc(I)cc2)c2ccc3oc(C)cc3c2)cc1C
245 to 246 | Clc1ccccc1N1CCN(Cc2nc3ccccc3[nH]2)CC1
130 to 132 | CCCCCCCCCCCCCCCCCCOc1ccc(C(=O)C(=O)N(CC(=O)O)CC(=O)O)cc1
136 to 139 | COc1ccc2c(c1)C(N=Cc1ccc(O)c(OC)c1)CCO2 (stereo unspecified)
134 to 135 | CCCCC(=O)Nc1ncc(Br)c(C)c1[N+](=O)[O-]
223 to 225 | CC(C)Cn1c(CN(C)C(N)=O)nc2c(N)nc3ccccc3c21
> 250 | O=C(O)c1cnn2c(C(F)(F)F)cc(-c3ccc(C(F)(F)F)cc3)cc12
156 to 157 | O=Cc1cccc2nnc(-c3ccccc3)cc12
122 to 123 | O=S(c1ccc(/C=C/c2nc(COc3ccc(CCCCn4ccnn4)cc3)co2)cc1)C(F)(F)F (stereo unspecified)

melting point [°C] | SMILES
246 | Cc1cccc(-c2sc(N)nc2-c2ccnc(-c3ccc(N4CCOCC4)cc3)c2)n1
87 to 88 | COc1ccc2c(c1)C(C(=O)N(Cc1ccc(Cl)cc1)c1ccc(C(C)C)cc1)CCC2 (stereo unspecified)
72 to 73 | CCCCCCCCCCCCCC1CC(=O)NCCCNCCCCN1 (stereo unspecified)
228 to 231 | CNC(=O)C(Cc1ccc(OC)cc1)NC(=O)C(CC(C)C)C(S)CC(=O)NCC(=O)O (stereo unspecified)
170 | O=C(NC[C@H]1CC[C@@H](Oc2ccc(F)cc2)CC1)c1ccc(O)cc1
197 to 198 | COc1ccc(Cc2cnc(NCCSCc3nc[nH]c3C)[nH]c2=O)cn1
150 to 160 | CCCCCC(c1nccn1CC(=O)O)n1cnc2cc(-c3ccccc3-c3nn[nH]n3)ccc21 (stereo unspecified)
88.4 to 89.1 | NS(=O)(=O)c1cccc(C(=O)C(F)(F)F)c1
67 to 69 | O=C(OC1CCN(Cc2ccc(Cl)cc2)CC1)c1ccc(Cl)cc1
206 to 207 | Cn1c(-c2ccccc2)nc(CN2CCN(c3ccc(O)cc3)CC2)cc1=O
174 | Cc1nc(C(O)(Cn2cncn2)c2ccc(Cl)cc2)sc1C (stereo unspecified)
129 | CCOC(=O)c1nc2scc(CN(C)Cc3ccccc3)c2c(=O)[nH]1
275 | CC(O)C(O)c1nc2c(C(F)(F)F)cccc2c(O)c1C(=O)Nc1nccs1 (stereo unspecified)
124 to 125 | CCS(=O)(=O)N[C@H](C(=O)NCCc1ccc(OCCOc2ccc(F)cc2)c(OC)c1)C(C)C
158 to 160 | CC(C)CC1=CC(c2cccc([N+](=O)[O-])c2)C2=C(CCCC2=O)N1 (stereo unspecified)
148 to 149 | Cc1ccc(OCc2c(F)cccc2Cl)c(NC(=N)Nc2ccc(Cl)cc2)n1
234 to 235 | O=C(Nc1c(C(=O)O)[nH]c2cc(Cl)cc(Cl)c12)c1ccccc1Cc1ccccc1
110 to 113 | O=C(O)c1cc(OCCCOc2ccccc2-c2ccccc2)cc(OCCCOc2ccccc2-c2ccccc2)c1
78 to 80 | COc1ccc2c(c1Cl)C=CN(C(C)=O)C2
129 to 131 | COC(=O)CNc1cc2cc(OC)ccc2cc1OCc1ccccc1
116 to 118 | COc1cc(COc2nn(-c3ccccc3)cc2/C=C/c2coc(C(C)C)n2)ccc1OCc1nc(-c2ccc(CC(=O)O)cc2)oc1C
156 to 157 | COc1ccc(-c2csnn2)cc1C=O
159 to 160 | COC(=O)Cc1cc(Br)c(S(=O)(=O)c2ccc(O)c(C(C)C)c2)c(Br)c1
145 to 155 | CCn1c2ccccc2c2cc(OC)c(C#N)cc21
92 to 93 | CCCCc1n[nH]c(C(F)(F)CCC)n1
118 to 120 | CN(C)S(=O)(=O)Oc1cc(-n2c(=O)cc(C(F)(F)F)n(C)c2=O)c(F)cc1Cl

Reference: a melting point compilation (Tetko et al.; mined from patent text by program, amines drawn as free bases though some values may be those of a salt)
